ChEMBL document CHEMBL1833893, “Synthesis and anticonvulsant activity of new 1-[2-oxo-2-(4-phenylpiperazin-1-yl)ethyl]pyrrolidine-2,5-diones” (Bioorg Med Chem Lett, 2011)
Active and inactive are the calls of the source. The rule behind the calls is not given here.

What was measured:
Mus musculus [1] = test: Neurotoxicity in albino CF1 mouse assessed as motor impairment at 300 mg/kg, ip after 0.5 hrs by rotarod test; assay type: toxicity, organism-based; parameters: dose 300 mg/kg, route intraperitoneal; conditions: in vivo
Mus musculus [2] = test: Neurotoxicity in albino CF1 mouse assessed as motor impairment at 300 mg/kg, ip after 4 hrs by rotarod test; assay type: toxicity, organism-based; parameters: dose 300 mg/kg, route intraperitoneal; conditions: in vivo
Mus musculus [3] = test: Anticonvulsant activity in ip dosed albino CF1 mouse assessed as protection against maximal electroshock-induced seizures after 0.5 hrs; assay type: functional; conditions: read-out: MED
Mus musculus [4] = test: Anticonvulsant activity in ip dosed albino CF1 mouse assessed as protection against maximal electroshock-induced seizures after 0.25 hrs; assay type: functional; conditions: read-out: MED
Mus musculus [5] = test: Anticonvulsant activity in albino CF1 mouse assessed as protection against maximal electroshock-induced seizures at 300 mg/kg, ip after 4 hrs; assay type: functional, organism-based; parameters: dose 300 mg/kg
Mus musculus [6] = test: Anticonvulsant activity in albino CF1 mouse assessed as protection against subcutaneous pentylenetetrazole-induced seizures at 300 mg/kg, ip after 4 hrs; assay type: functional, organism-based; parameters: dose 300 mg/kg
Mus musculus [7] = test: Anticonvulsant activity in albino CF1 mouse assessed as protection against subcutaneous pentylenetetrazole-induced seizures at 300 mg/kg, ip after 0.5 hrs; assay type: functional, organism-based; parameters: dose 300 mg/kg

Compound: CC1(C)CC(=O)N(CC(=O)N2CCN(c3ccccc3)CC2)C1=O
- Activity (Mus musculus [1]): Non-toxic
- Activity (Mus musculus [2]): Non-toxic
- minimal effective dose (Mus musculus [3]): 300 mg/kg
- minimal effective dose (Mus musculus [4]): 100 mg/kg
- Activity (Mus musculus [5]): inactive
- Activity (Mus musculus [6]): inactive
- Activity (Mus musculus [7]): inactive
